Source: patent publication US6255092A, “Stereospecific alcohol dehydrogenase isolated from Candida parapsilosis, amino acid and DNA sequences therefor, and method of preparation thereof” (Daicel Chemical Industries Ltd., priority 1993, dated 2001)
Like-named read-outs stand apart in the source and are kept apart here.

Experiments:
[1] = target: T1, secondary alcohol dehydrogenase (Lodderomyces parapsilosis, UniProt O42703)
From the text: (§1) One unit of enzyme was defined as the amount of enzyme necessary to catalyze the formation of 1 μmol of NADH per min under the assay conditions.

[2] = target: T1, secondary alcohol dehydrogenase; experiment: biochemical; format: biochemical, Candida parapsilosis; design: full length 336 aa, about 40 kDa; gene also expressed in E. coli JM109 (pKK-CPA1); settings: for remaining activity at 1000 µM: read-out: Relative activity (remaining activity)
Method: After said enzyme was incubated at 30° C. for 30 min in the presence of various reagents, the remaining activity was assayed and expressed as the percentage relative to that (100%) of the untreated enzyme (Table 5).

[3] = target: T1, secondary alcohol dehydrogenase; experiment: Substrate specificity: reducing activity with ketones/aldehydes (NADH); format: biochemical, Candida parapsilosis; design: full length 336 aa, about 40 kDa; gene also expressed in E. coli JM109 (pKK-CPA1); settings: reduction, coenzyme NADH, relative to 2-butanone reducing activity (100%)
[4] = Specific activity of the purified enzyme, standard assay; format: biochemical, Candida parapsilosis; settings: purified enzyme after Mono-Q, (S)-2-butanol, pH 9.0, 30° C.
Method: The wet cells thus obtained were disrupted in a high pressure cell disintegrator, and centrifuged to remove cell debris. To the cell-free extract protamine sulfate was added to remove nucleic acids and microsomes. After centrifugation, the supernatant was brought to 70% saturation with ammonium sulfate, and the precipitate was collected, subjected to anion exchange chromatography on Q-Sepharose FF, eluted with a density gradient of NaCl, and the peak fraction containing said secondary alcohol dehydrogenase activity was collected. The active fraction was then subjected to hydrophobic chromatography on a column of phenyl-Sepharose equilibrated with a buffer containing 1.62 M ammonium sulfate, and the active fraction was eluted by reducing the ammonium sulfate concentration to 0 M (the enzyme activity was assayed as described hereinbefore). After the active fraction was added to a Red Sepharose affinity column, the unretained fraction was subjected to a Superdex 200 gel filtration. The recovered active fraction was subjected to anion exchange chromatography on a Mono Q column and eluted with a density gradient of NaCl. Only active fractions which gave a single band in the purity test on SDS-PAGE were collected.

[5] = Optimum reaction temperature, standard assay; format: biochemical, Candida parapsilosis
Method: The secondary alcohol dehydrogenase activity was assayed under the standard assay conditions at different temperature as shown in Table 2.

[6] = Thermostability of the purified enzyme; format: physicochemical, Candida parapsilosis; settings: 40° C. for 10 min, pH 8.0, relative to the original activity
Method: After the purified enzyme was incubated at pH 8.0 and 30° C.-70° C. for 10 min, the remaining activity was assayed. Even after the incubation at 40° C. for 10 min, more than 90% of the original enzyme activity was retained (FIG. 5).

[7] = pH optimum of (S)-2-butanol oxidizing activity; format: biochemical, Candida parapsilosis; settings: KPB, Tris-HCl and Briton-Robinson buffer
From the text: as §1

[8] = pH optimum of 2-butanone reducing activity; format: biochemical, Candida parapsilosis; settings: NADH, KPB, Tris-HCl and Briton-Robinson buffer
[9] = relative to that for ethanol; cited from earlier work
[10] = oxidation, substrate 5 mM, coenzyme NAD+, relative to (S)-2-butanol oxidizing activity (100%)
[11] = inhibitor 1 mM, 30° C. for 30 min, relative to untreated enzyme (100%)

## CCCCCCC(C)O (racemic) [(RS)-2-Octanol]
[1]; [10]
  Relative activity: 39.2%

## O[C@H](CS)[C@H](O)CS (racemic) [Dithiothreitol]
[2]
  Inhibition of the enzyme activity (in words): markedly inhibited
[2]; [11]
  remaining activity at 1000 µM: 0%

## CCC(C)=O [2-Butanone]
[3]; substrate 100 mM
  Relative activity: 100.0%

## CC(=O)C(C)(C)O [3-Hydroxy-3-methyl-2-butanone]
[3]; substrate 100 mM
  Relative activity: 18.5%

## CC(=O)CCO [4-Hydroxy-2-butanone]
[3]; substrate 100 mM
  Relative activity: 41.2%

## CC(C)CC(C)O (stereo not shown) [4-Methyl-2-pentanol]
[1]; oxidation, substrate 20 mM, coenzyme NAD+, relative to (S)-2-butanol oxidizing activity (100%)
  Relative activity: 40.8%

## C[C@@H](O)c1ccccc1 [(R)-1-Phenylethanol]
[1]
  Relative activity: 1.1

## CCCCCC[C@@H](C)O [(R)-2-Octanol]
[1]; [10]
  Relative activity: 0.0%

## C[C@H](O)c1ccccc1 [(S)-1-Phenylethanol]
[1]
  Relative activity: 89.3

## CCCCCC[C@H](C)O [(S)-2-Octanol]
[1]; [10]
  Relative activity: 67.7%

## CC(C)=O [Acetone]
[3]; substrate 100 mM
  Relative activity: 123.4%

## CC(=O)c1ccccc1 [Acetophenone]
[3]; substrate 20 mM
  Relative activity: 121.8%

## O=S(=O)([O-])[O-].[Cu+2] [CuSO4]
[2]; [11]
  Relative activity (remaining activity): 25.5%

## OC1CCCCC1 [Cyclohexanol]
[1]
  Relative activity: 52.8

## O=C(O)CN(CCN(CC(=O)O)CC(=O)O)CC(=O)O [Ethylenediaminetetraacetic acid, Ethylenediamine-tetraacetic acid]
[2]
  Inhibition of the enzyme activity (in words): not
  remaining activity at 1000 µM: 102%

## [Cl][Hg][Cl] [HgCl2, mercuric chloride]
[2]
  Inhibition of the enzyme activity (in words): markedly inhibited
[2]; [11]
  Relative activity (remaining activity): 0.0%

## CO [Methanol]
[1]
  Relative activity: 0.2

## CCN1C(=O)C=CC1=O [N-Ethylmaleimide]
[2]
  Inhibition of the enzyme activity (in words): inhibited
[2]; [11]
  remaining activity at 1000 µM: 21.2%

## NO [NH2 OH]
[2]; inhibitor 0.01 mM, 30° C. for 30 min, relative to untreated enzyme (100%)
  Relative activity (remaining activity): 92.7%

## [N-]=[N+]=[N-].[Na+] [NaN3]
[2]; inhibitor 0.02(%), 30° C. for 30 min, relative to untreated enzyme (100%)
  Relative activity (remaining activity): 89.9%

## O=S(=O)(F)Cc1ccccc1 [Phenylmethanesulfonyl fluoride, Phenylmethane-sulfonyl fluoride]
[2]; [11]
  Relative activity (remaining activity): 69.0%

## CCC=O [Propionaldehyde]
[3]; substrate 100 mM
  Relative activity: 76.2%

## [Cl-].[Cl-].[Zn+2] [ZnCl2, zinc chloride]
[2]
  Inhibition of the enzyme activity (in words): markedly inhibited
[2]; [11]
  Relative activity (remaining activity): 16.4%

## OCCS [b-Mercaptoethanol, 2-mercaptoethanol]
[2]
  Inhibition of the enzyme activity (in words): markedly inhibited
[2]; [11]
  remaining activity at 1000 µM: 3.2%

## NC(=O)CI [iodoacetamide]
[2]
  Inhibition of the enzyme activity (in words): markedly inhibited

## c1cnc2c(c1)ccc1cccnc12 [o-Phenanthroline]
[2]
  Inhibition of the enzyme activity (in words): inhibited
[2]; [11]
  remaining activity at 1000 µM: 19%

## O=C(O)c1cc[c]([Hg][Cl])cc1 [p-Chloromercuribenzoic acid, p-Chloromercuri-benzoic acid]
[2]
  Inhibition of the enzyme activity (in words): markedly inhibited
[2]; inhibitor 0.05 mM, 30° C. for 30 min, relative to untreated enzyme (100%)
  Relative activity (remaining activity): 0.0%
[2]; listed as p-mercuribenzoic acid
  Inhibition of the enzyme activity (in words): inhibited

B1: secondary alcohol dehydrogenase: NAD+-dependent stereospecific secondary alcohol dehydrogenase purified from Candida parapsilosis IFO 1396, SEQ. ID NO: 2 (protein)
chain: MSIPSSQYGFVFNKQSGLNLRNDLPVHKPKAGQLLLKVDAVGLCHSDLHVIYEGLDCGDNYVMGHEIAGTVAAVGDDVINYKVGDRVACVGPNGCGGCKYCRGAIDNVCKNAFGDWFGLGYDGGYQQYLLVTRPRNLSRIPDNVSADVAAASTDAVLTPYHAIKMAQVSPTSNILLIGAGGLGGNAIQVAKAFGAKVTVLDKKKEARDQAKKLGADAVYETLPESISPGSFSACFDFVSVQATFDVCQKYVEPKGVIMPVGLGAPNLSFNLGDLALREIRILGSFWGTTNDLDDVLKLVSEGKVKPVVRSAKLKELPEYIEKLRNNAYEGRVVFNP
[4]
  Specific activity: 1370 units/mg
[5]
  Temperature range of high activity: 25-55 °C
[5]; 30 °C
  Relative activity: 55%
[5]; 37 °C
  Relative activity: 65%
[5]; 45 °C
  Relative activity: 92%
[5]; 50 °C
  Relative activity: 100%
[5]; 55 °C
  Relative activity: 88%
[5]; 60 °C
  Relative activity: 0%
[5]; standard assay conditions
  Optimum reaction temperature: 50 °C
[6]
  Remaining activity after heat treatment: more than 90%
[7]
  pH optimum for the oxidation of (S)-2-butanol: 8.5-9.5
[8]
  pH optimum for the reduction of 2-butanone: 5.5-6.5

B2: SADH-1: primary alcohol dehydrogenase derived from baker's yeast (Saccharomyces cerevisiae) (protein, UniProt P00330 2-348, looked up)
Alcohol dehydrogenase 1: SIPETQKGVIFYESHGKLEYKDIPVPKPKANELLINVKYSGVCHTDLHAWHGDWPLPVKLPLVGGHEGAGVVVGMGENVKGWKIGDYAGIKWLNGSCMACEYCELGNESNCPHADLSGYTHDGSFQQYATADAVQAAHIPQGTDLAQVAPILCAGITVYKALKSANLMAGHWVAISGAAGGLGSLAVQYAKAMGYRVLGIDGGEGKEELFRSIGGEVFIDFTKEKDIVGAVLKATDGGAHGVINVSVSEAAIEASTRYVRANGTTVLVGMPAGAKCCSDVFNQVVKSISIVGSYVGNRADTREALDFFARGLVKSPIKVVGLSTLPEIYEKMEKGQIVGRYVVDTSK
[9]
  Relative activity for 2-butanol: about 1%
